As usually defined, the IC50 is the concentration needed to halve the response being measured.

One assay relates to HCT-116 colon carcinoma. Nature of the assay: Cell Proliferation Inhibition Assay (14C-thymidine incorporation), HCT-116.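 Further: proliferation measured as methyl 14C-thymidine uptake into new DNA, counted in 96-well scintillating microplates, compared with DMSO-only control wells.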 In kind it is cell-based. To be noted: Homo sapiens, HCT-116, HCT-116 cells. Background: Incorporation of labelled thymidine or its analogues reports DNA synthesis.
The test system of assay [1] is HeLa cervical adenocarcinoma. Nature of the assay: Cell Proliferation Inhibition Assay (14C-thymidine incorporation), HeLa.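 Further: test compound in DMSO added to cells seeded in scintillating 96-well plates, DMSO-only wells as control, uptake of methyl 14C-thymidine into new DNA counted.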 In kind it is cell-based. To be noted: Homo sapiens, HeLa, HeLa cells.
For another assay, the target named is T1, CDK1 (Homo sapiens, UniProt P06493).
T1 construct: purchased New England Biolabs, Beverly, Mass; 6020; host or cells: insect cells
T1 sequence (P06493 whole entry): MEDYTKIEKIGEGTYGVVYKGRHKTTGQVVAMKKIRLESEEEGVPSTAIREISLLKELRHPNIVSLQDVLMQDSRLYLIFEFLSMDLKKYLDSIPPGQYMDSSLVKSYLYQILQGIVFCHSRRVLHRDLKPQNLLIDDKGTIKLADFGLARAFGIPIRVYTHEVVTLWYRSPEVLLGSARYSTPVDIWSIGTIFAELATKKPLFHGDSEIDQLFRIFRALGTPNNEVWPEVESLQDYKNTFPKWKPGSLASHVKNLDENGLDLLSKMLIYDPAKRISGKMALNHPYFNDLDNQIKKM
T1 sequence (P14635 whole entry partner): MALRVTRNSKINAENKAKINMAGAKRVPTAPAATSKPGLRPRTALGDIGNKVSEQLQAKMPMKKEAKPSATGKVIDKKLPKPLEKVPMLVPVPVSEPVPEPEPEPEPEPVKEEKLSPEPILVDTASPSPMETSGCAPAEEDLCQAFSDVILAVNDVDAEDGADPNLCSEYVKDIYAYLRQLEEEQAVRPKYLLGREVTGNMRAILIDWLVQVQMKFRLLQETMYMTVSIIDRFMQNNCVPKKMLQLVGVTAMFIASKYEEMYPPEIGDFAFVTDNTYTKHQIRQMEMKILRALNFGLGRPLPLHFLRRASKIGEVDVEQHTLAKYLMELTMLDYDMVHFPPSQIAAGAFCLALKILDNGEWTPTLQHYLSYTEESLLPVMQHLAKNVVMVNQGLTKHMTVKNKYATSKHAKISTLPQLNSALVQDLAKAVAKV
Nature of the assay: CDK-1 kinase screening assay (33P-ATP FlashPlate). It counts as biochemical. To be noted: human CDK1 with cyclin B; 10 μM ATP; 1 hr at 30° C.

Another assay has as its target T2, VEGF-R2 (Rattus norvegicus, UniProt O08775).
T2 construct: polyhistidine (N)
Nature of the assay: VEGF-R2 kinase screening assay (33P-ATP FlashPlate).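 Further: Read-out is ³³P incorporation from ³³P-γ-ATP into biotinylated peptide substrate captured on streptavidin FlashPlate, counted by scintillation, 1% DMSO final, inhibition scaled between per-plate maximum and minimum signals.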 As to conditions: rat VEGF-R2 kinase domain; 10 μM ATP; 1 hr at 30° C. It counts as biochemical.

A further assay relates to A375 malignant melanoma. The assay can be described thus: Cell Proliferation Inhibition Assay (14C-thymidine incorporation), A375.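 Further: proliferation measured by radiolabelled thymidine uptake into new DNA, counted in scintillating 96-well plates, compound-treated wells compared with DMSO-only control wells.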 It counts as cell-based. As to conditions: Homo sapiens, A-375, A375 cells.
In the next assay the target is T3, HER2 (Homo sapiens, UniProt P04626).
T3 construct: GST (Glutathione-S-Transferase) (N); HIS6 (N); thrombin cleavage site (N); purchased Proqinase, Freiburg, Germany
T3 sequence (P04626 679-1255): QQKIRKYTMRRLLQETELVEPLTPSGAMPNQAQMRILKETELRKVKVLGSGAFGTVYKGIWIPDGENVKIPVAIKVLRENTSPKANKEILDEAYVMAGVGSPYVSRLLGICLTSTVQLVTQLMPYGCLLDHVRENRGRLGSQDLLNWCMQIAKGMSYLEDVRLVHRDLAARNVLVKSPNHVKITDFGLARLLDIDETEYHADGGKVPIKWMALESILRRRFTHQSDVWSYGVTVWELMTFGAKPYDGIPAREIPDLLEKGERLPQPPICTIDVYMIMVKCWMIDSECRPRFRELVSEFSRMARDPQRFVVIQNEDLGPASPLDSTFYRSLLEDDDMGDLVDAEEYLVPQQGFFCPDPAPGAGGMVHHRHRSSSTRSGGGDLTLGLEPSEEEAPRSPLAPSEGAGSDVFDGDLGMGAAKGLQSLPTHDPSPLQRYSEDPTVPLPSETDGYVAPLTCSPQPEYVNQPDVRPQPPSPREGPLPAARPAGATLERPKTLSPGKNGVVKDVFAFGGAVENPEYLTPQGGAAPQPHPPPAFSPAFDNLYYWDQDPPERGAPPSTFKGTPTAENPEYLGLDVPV
Nature of the assay: HER2 kinase screening assay (33P-ATP FlashPlate).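 Further: Biotin-poly(GT) 4:1 peptide captured on streptavidin FlashPlate, 33P transfer from γ-ATP read by scintillation counting, lower incorporation means inhibition, 1% DMSO final, 100 µL reaction.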 In kind it is biochemical. To be noted: GST-HIS6 HER-2 aa 679 to 1255; 10 μM ATP; 1 hr at 30° C.

The next assay concerns the target T4, RET (Homo sapiens, UniProt P07949).
T4 construct: polyhistidine (N)
T4 sequence (P07949 658-1114 limits assumed): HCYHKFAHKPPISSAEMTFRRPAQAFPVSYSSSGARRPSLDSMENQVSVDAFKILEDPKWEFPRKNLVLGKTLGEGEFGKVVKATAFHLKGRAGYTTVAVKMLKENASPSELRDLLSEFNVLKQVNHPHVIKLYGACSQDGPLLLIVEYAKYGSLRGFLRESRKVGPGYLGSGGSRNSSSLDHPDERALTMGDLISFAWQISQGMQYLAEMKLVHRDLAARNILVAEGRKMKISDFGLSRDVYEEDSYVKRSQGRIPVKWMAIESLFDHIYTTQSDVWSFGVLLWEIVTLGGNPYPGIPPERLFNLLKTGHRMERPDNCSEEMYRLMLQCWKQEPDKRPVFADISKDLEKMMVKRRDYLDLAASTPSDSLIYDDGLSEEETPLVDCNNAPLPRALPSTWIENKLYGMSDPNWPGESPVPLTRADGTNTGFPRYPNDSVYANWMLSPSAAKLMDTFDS
Nature of the assay: RET kinase screening assay (33P-ATP FlashPlate).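 Further: biotinylated peptide substrate captured on streptavidin FlashPlate, 33P phosphate transfer read by scintillation counting, 1% DMSO, lower incorporation means inhibition, percent relative to per-plate maximum and minimum signals.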 In kind it is biochemical. As to conditions: human RET kinase domain; 10 μM ATP; 1 hr at 30° C.

The next assay deals with T5, Aurora-A (Mus musculus, UniProt P97477).
T5 construct: polyhistidine (N)
T5 sequence (P97477 1-395): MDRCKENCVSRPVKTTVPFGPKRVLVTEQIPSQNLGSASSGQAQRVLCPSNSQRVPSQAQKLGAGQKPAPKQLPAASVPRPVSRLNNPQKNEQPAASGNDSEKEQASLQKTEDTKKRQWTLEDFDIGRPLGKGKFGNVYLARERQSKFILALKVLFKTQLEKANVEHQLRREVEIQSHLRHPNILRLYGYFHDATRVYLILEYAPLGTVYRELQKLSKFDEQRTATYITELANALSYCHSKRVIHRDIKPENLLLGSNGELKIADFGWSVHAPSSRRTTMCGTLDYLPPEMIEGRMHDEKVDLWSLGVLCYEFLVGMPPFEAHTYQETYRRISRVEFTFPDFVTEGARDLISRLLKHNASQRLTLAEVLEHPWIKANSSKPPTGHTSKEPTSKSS
The assay can be described thus: Aurora-A kinase screening assay (33P-ATP FlashPlate).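 Further: His-tagged mouse Aurora-A phosphorylating a biotinylated peptide captured on streptavidin plates, read as 33P uptake by scintillation counting, 1% DMSO, inhibition scaled between per-plate maximum and minimum signals.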 As to conditions: 10 μM ATP, 1 hr at 30° C. It counts as biochemical.

T2 sequence (O08775 786-1343): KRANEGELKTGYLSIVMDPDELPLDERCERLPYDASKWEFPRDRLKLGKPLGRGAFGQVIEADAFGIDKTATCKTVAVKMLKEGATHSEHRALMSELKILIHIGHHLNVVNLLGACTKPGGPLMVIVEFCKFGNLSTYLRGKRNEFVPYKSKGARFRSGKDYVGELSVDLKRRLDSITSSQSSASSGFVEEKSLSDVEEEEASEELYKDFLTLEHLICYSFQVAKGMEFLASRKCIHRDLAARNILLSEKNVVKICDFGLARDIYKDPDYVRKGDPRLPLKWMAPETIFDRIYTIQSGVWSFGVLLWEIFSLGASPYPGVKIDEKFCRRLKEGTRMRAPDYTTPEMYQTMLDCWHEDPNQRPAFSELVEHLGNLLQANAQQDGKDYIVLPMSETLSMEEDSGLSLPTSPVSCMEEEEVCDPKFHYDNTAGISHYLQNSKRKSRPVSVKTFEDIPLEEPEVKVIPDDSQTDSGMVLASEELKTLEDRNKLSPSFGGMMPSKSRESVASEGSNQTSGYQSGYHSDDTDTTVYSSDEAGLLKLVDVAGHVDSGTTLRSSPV

Take `CNCc1cncc(-c2cnc3[nH]nc(-c4nc5c(COC)cccc5[nH]4)c3c2)c1C` [Cpd 62, {5-[3-(4-methoxymethyl-1H-benzoimidazol-2-yl)-1H-pyrazolo[3,4-b]pyridin-5-yl]-4-methyl-pyridin-3-ylmethyl}-methyl-amine]: the IC50 is 229 nM in the assay with HCT-116 colon carcinoma; 1180 nM in assay [1]; 68.1 nM at CDK1; 2790 nM against VEGF-R2; 62.3 nM in the assay with A375 malignant melanoma; more than 100000 nM at HER2. Further, the IC50 against RET was approximately 10000 nM; against Aurora-A, 1750 nM.

In the case of `COCc1cccc2[nH]c(-c3n[nH]c4ncc(-c5ccc(OC)nc5)cc34)nc12` [Cpd 63, 3-(4-methoxymethyl-1H-benzoimidazol-2-yl)-5-(6-methoxy-pyridin-3-yl)-1H-pyrazolo[3,4-b]pyridine], the IC50 in the assay with HCT-116 colon carcinoma was 120 nM; in assay [1] it was 9960 nM; on CDK1 it was more than 10000 nM; against VEGF-R2, 319 nM; in the assay with A375 malignant melanoma, 76.3 nM; against HER2, more than 100000 nM. In addition, the IC50 against RET was more than 100000 nM; on Aurora-A it was approximately 100000 nM.

In the case of `COCc1cccc2[nH]c(-c3n[nH]c4ncc(-c5ccc(N6CCOCC6)nc5)cc34)nc12` [Cpd 66, 3-(4-methoxymethyl-1H-benzoimidazol-2-yl)-5-(6-morpholin-4-yl-pyridin-3-yl)-1H-pyrazolo[3,4-b]pyridine], the IC50 in the assay with HCT-116 colon carcinoma was 20.4 nM; in assay [1], 1080 nM; against CDK1, more than 100000 nM; at VEGF-R2, 121 nM; in the assay on A375 malignant melanoma, 4.4 nM; on HER2, more than 100000 nM. In addition, the IC50 against RET is more than 100000 nM; against Aurora-A it was more than 1000 nM.

In the case of `COCc1cccc2[nH]c(-c3n[nH]c4ncc(-c5ccc(N6CCN(C(=O)OC(C)(C)C)CC6)nc5)cc34)nc12` [Cpd 67, 4-{5-[3-(4-methoxymethyl-1H-benzoimidazol-2-yl)-1H-pyrazolo[3,4-b]pyridin-5-yl]-pyridin-2-yl}-piperazine-1-carboxylic acid tert-butyl ester], the IC50 is 24.5 nM in the assay with HCT-116 colon carcinoma; 1980 nM in assay [1]; more than 10000 nM against CDK1; more than 10000 nM on VEGF-R2; 10.9 nM with A375 malignant melanoma; more than 100000 nM on HER2. Also, the IC50 against RET and against Aurora-A was more than 100000 nM each time.

Take `COCc1cccc2[nH]c(-c3n[nH]c4ncc(-c5cncnc5)cc34)nc12` [Cpd 68, 3-(4-methoxymethyl-1H-benzoimidazol-2-yl)-5-pyrimidin-5-yl-1H-pyrazolo[3,4-b]pyridine]: the IC50 in the assay on HCT-116 colon carcinoma was 325 nM; in assay [1], 9910 nM; against CDK1 it was 1280 nM; against VEGF-R2, 115 nM; in the assay on A375 malignant melanoma, 160 nM; on HER2 it was more than 100000 nM. In addition, the IC50 against RET was more than 100000 nM; against Aurora-A, approximately 10000 nM.

As to `CCOC(=O)c1cncc(-c2cnc3[nH]nc(-c4nc5c(COC)cccc5[nH]4)c3c2)c1` [Cpd 70, 5-[3-(4-methoxymethyl-1H-benzoimidazol-2-yl)-1H-pyrazolo[3,4-b]pyridin-5-yl]-nicotinic acid ethyl ester], the half-inhibitory concentration (IC50) with HCT-116 colon carcinoma was 55.4 nM; in assay [1], 1940 nM; against CDK1, more than 100000 nM; on VEGF-R2 it was approximately 100000 nM; with A375 malignant melanoma, 38.7 nM; against HER2, more than 100000 nM. For the same molecule, the IC50 is more than 100000 nM against RET and approximately 100000 nM against Aurora-A.

Consider `CCCCNCc1cncc(-c2cnc3[nH]nc(-c4nc5c(COC)cccc5[nH]4)c3c2)c1` [Cpd 79, butyl-{5-[3-(4-methoxymethyl-1H-benzoimidazol-2-yl)-1H-pyrazolo[3,4-b]pyridin-5-yl]-pyridin-3-ylmethyl}-amine], for which the IC50 was 218 nM with HCT-116 colon carcinoma; 417 nM in assay [1]; 6.81 nM on CDK1; approximately 1000 nM on VEGF-R2; 343 nM with A375 malignant melanoma; more than 10000 nM against HER2. Moreover, the figures for the IC50 on RET and against Aurora-A were more than 10000 nM and 2450 nM, respectively.

`CN(C)Cc1cncc(-c2cnc3[nH]nc(-c4nc5cc(N6CCN(C)CC6)ccc5[nH]4)c3c2)c1` [Cpd 88, dimethyl-(5-{3-[5-(4-methyl-piperazin-1-yl)-1H-benzoimidazol-2-yl]-1H-pyrazolo[3,4-b]pyridin-5-yl}-pyridin-3-ylmethyl)-amine]: the IC50 in the assay with HCT-116 colon carcinoma was 431 nM; in assay [1] it was 861 nM; against CDK1, 6.14 nM; at VEGF-R2, 120 nM; in the assay with A375 malignant melanoma, 885 nM; on HER2, 1920 nM. Moreover, the values for the IC50 on RET and against Aurora-A were 104 nM and 281 nM, respectively.

Regarding `FC1(F)Oc2cc3nc(-c4n[nH]c5ncc(-c6cccnc6)cc45)[nH]c3cc2O1` [Cpd 98, 2,2-difluoro-6-(5-pyridin-3-yl-1H-pyrazolo[3,4-b]pyridin-3-yl)-5H-[1,3]dioxolo[4′,5′:4,5]benzo[1,2-d]imidazole], the IC50 was 943 nM in the assay on HCT-116 colon carcinoma; 1610 nM in assay [1]; 6.6 nM against CDK1; more than 100 nM at VEGF-R2; 1080 nM in the assay on A375 malignant melanoma; more than 100000 nM at HER2. The values for the IC50 at RET and on Aurora-A were more than 100000 nM and more than 10000 nM, respectively.

With `c1cncc(-c2cnc3[nH]nc(-c4nc5cc6c(cc5[nH]4)OCO6)c3c2)c1` [Cpd 99, 6-(5-pyridin-3-yl-1H-pyrazolo[3,4-b]pyridin-3-yl)-5H-[1,3]dioxolo[4′,5′:4,5]benzo[1,2-d]imidazole], the IC50 in the assay on HCT-116 colon carcinoma was 271 nM; in assay [1], 471 nM; at CDK1, 3.3 nM; at VEGF-R2, approximately 1000 nM; in the assay with A375 malignant melanoma, 489 nM; at HER2 it was more than 100000 nM. Also, the IC50 was more than 100000 nM against RET and approximately 10000 nM on Aurora-A.

For the molecule `CNCc1cncc(-c2cnc3[nH]nc(-c4nc5ccc(C#N)cc5[nH]4)c3c2)c1` [Cpd 105, 2-[5-(5-methylaminomethyl-pyridin-3-yl)-1H-pyrazolo[3,4-b]pyridin-3-yl]-3H-benzoimidazole-5-carbonitrile], the IC50 with HCT-116 colon carcinoma was 685 nM; in assay [1], 120 nM; against CDK1, 1.7 nM; against VEGF-R2, more than 10 nM; in the assay on A375 malignant melanoma, 526 nM; at HER2, more than 10000 nM. The IC50 on RET was more than 10 nM; against Aurora-A, more than 1000 nM.

The record behind these values is patent US7541367B2, “3-benzoimidazolyl-pyrazolopyridines useful in treating kinase disorders” (Janssen Pharmaceutica, N.V., priority 2005, dated 2009).
